# Experimental data from patent US20240000741A1, “ALL-TRANS RETINOIC ACID ENHANCES RADIOTHERAPY AND OVERCOMES IMMUNE SUPPRESSION FOR CANCER THERAPY” (The University of Chicago, priority 2022, published 2024).
# Experiments:
# Type in all cases: in vivo, mouse
# [1] = tested on: Renca (a renal cancer tumor model); experiment: Renca tumor growth after IR and RA; conditions: IR and RA combination compared with single treatments
# Procedure: (§1) 1×10^6 MC38, B16/F1, Renca or CT26 cells were subcutaneously implanted into flanks of mice. Tumors were irradiated using a Phillips IR250 orthovoltage X-ray generator (Phillips, Amsterdam, the Netherlands) operating at 250 kV 15 mA. Subcutaneous local tumors were irradiated by shielding bodies with a cylindrical lead cover with only flank tumors exposed for radiation. ATRA (400 μg/mice/day) was administered by oral gavage for 10 days. For the two-tumor model, 1×10^6 and 0.7×10^6 MC38 cells were subcutaneously implanted into the right and left flank of mice respectively. […] Tumors were measured along two diameters (length and width) and depth twice weekly and volumes were calculated as length×width×depth/2. For CD8 and CD4 T cell depletion experiments, 200 μg antibodies were injected i.p. on day 0, 2, 5 and 8 after radiation. Anti-CD11b antibody was injected i.p. every two days starting 1 day before radiation. Anti-PD-L1 antibody was administered i.p. on day 0, 3, and 7 after radiation at 200 μg/mouse. Anti-IFN-γ was administered i.p. at 500 μg/mouse every 7 days. Anti-NK1.1 antibody was administered via i.p. at 25 μg/mouse every 3 days for 3 doses. Anti-GM-CSF antibody was given by i.p. injection at 250 μg/mouse every 2 days. FTY720 was delivered via gavage at 20 μg per dose every day for 7 days. […]
# [2] = tested on: CT26 (a colon cancer model); experiment: CT26 tumor growth after IR and RA (ablative IR); conditions: IR and RA combination compared with single treatments
# Procedure: as §1
# [3] = tested on: immune cells in tumors; experiment: Flow cytometric analysis of immune cells in treated MC38 tumors and draining lymph nodes
# Description: (§2) Single cell suspensions were obtained as previously described (40). Cells were blocked with anti-Fc receptor (2.4 G2, BioXCell, Lebanon, New Hampshire, United States of America) and stained for live/dead with Zombie UV, followed staining using antibodies against CD45, CD4, CD8, NK1.1, CD11b, CD11c, Ly6C, Ly6G, F4/80, CD44, CD62L.
# The following antibodies were used for high-dimensional flow analysis: BV605-CX3CR, BV650-XCR1, PB-CD11 b, BV510-CD24, BV711-CD64, BV785-F4/80, AF532-CD45, PerCP-Cy5.5-1-A/I-E, PerCP-eFluor710-Flt3, PE-Cy7-CD11c, FITC-Ly6C, PE-iNOS, PE-Dazzle 594-CD103, APC-TNF, Alexa Fluor 700-CD206, and APC-Cy7-SIRPα. For IFN-γ and GrzB (515407) staining, cells were cultured with PMA/ionomycin and brefeldin A (423303, BioLegend, San Diego, California, United States of America) for 6 hours followed by intracellular staining using BD fix/perm intracellular staining kit (554714, BD Biosciences, Franklin Lakes, New Jersey, United States of America). For TNF-α staining, cells were stimulated by PMA/ionomycin and brefeldin A for 4 hours followed by intracellular staining. Foxp3 (17-5773-82, Thermo Fisher Scientific, Waltham, Massachusetts, United States of America) Ki67 (Clone 16-A8, BioLegend, San Diego, California, United States of America) and iNOS staining were performed following Foxp3 staining protocol (00-5523-00, Thermo Fisher Scientific, Waltham, Massachusetts, United States of America). Cells were analyzed on Fortessa flow cytometer (BD Biosciences, Franklin Lakes, New Jersey, United States of America) or on Aurora spectral cytometer (Cytek Biosciences, Fremont, California, United States of America. Data was analyzed with software sold under the tradename FLOWJO software (FlowJo LLC, Ashland, Oregon, United States of America).
# Immune cells in tumors 4 days after the start of the treatment were examined. […] In CD11b+ subsets, Ly6C^+ cells, including CD11c^+Ly6C^+ cells, increased by 4-fold in tumors receiving the combination treatment. […] Next, the DC population was examined by analyzing high-dimensional flow cytometry data using traditional dendritic cell (DC) markers. Monocyte-derived dendritic cells (MoDCs) (Ly6C^+CD11 b^+CD11c^+ MHC-II^+CXCR3^+CD64^+SIRPα^+CD206^− cells), a low level of type two dendritic cells (DC2s) (Ly6C^−CD11b^+CD11c^+MHC-11^+CXCR3^+CD64^−SIRPα+CD206^−) and a very low level of type one dendritic cells (DC1s) (Ly6C^−CD11b^−CD11c^+MHC-11^+ CXCR1^+CD103^+CD64^−) were detected in IR and RA treated tumors.
# [4] = tested on: immune cells in non-irradiated tumors; experiment: Flow cytometric analysis of non-irradiated tumors in the two-tumor model
# Description: as §2
# More CD8^+ T and CD4^+ T cells were also observed in the non-irradiated tumors when primary tumors received IR+RA treatment.
# [5] = IR and RA treatment, high-dimensional flow cytometry
# [6] = IR+RA vs single treatment, day 8
# [7] = IR+RA, 4 days after start of treatment
# [8] = after IR+RA combination treatment
# [9] = 8 days after IR+RA combination treatment
smiles,measurement,setting,value
"CC1=C(/C=C/C(C)=C/C=C/C(C)=C/C(=O)O)C(C)(C)CCC1 [RA, all-trans retinoic acid]",Renca tumor growth,[1],significant benefit
same,CT26 tumor growth,[2],significant benefit
same,expression of TNF-α in CD11b+ cells,[3]; IR and RA combination treatment,Elevated expression
same,DC1 population,[3]; [5],not changed
same,DC2 population,[3]; [5],not changed
same,level of monocyte-derived dendritic cells (MoDCs),[3]; [5],significantly induced
same,increase of CD8+ T cells infiltration in tumors,"[3]; IR+RA compared to IR treated tumors, eight days after treatment commencement, p<0.05",about 3 fold
same,ratio of CD8+ IFN-γ+ cells to Treg,"[3]; IR+RA compared to any single treatment, day 8",increased significantly
same,percentage of CD8+ IFN-γ+ cells in tumors and draining lymph nodes,[3]; [6],increased
same,percentage of CD8+GzmB+ cells in tumors and draining lymph nodes,[3]; [6],increased
same,CD11b+iNOS+ cells in tumors,[3]; [7],11.1%
same,"increase of Ly6C+ cells, including CD11c+Ly6C+ cells, in CD11b+ subsets",[3]; [7],4 fold
same,percentage of CD4+ T cells in tumors,"[3]; IR+RA, day 4 post treatment",no significant change
same,percentage of CD8+ T cells in tumors,"[3]; IR+RA, day 4 post treatment",only a marginal change
same,percentage of Foxp3+ (Treg) cells in CD4+ T cells,"[3]; IR+RA, day 8",decreased
same,CD11b+CD11c+iNOS+TNF-α+ cells in tumors,"[3]; IR+RA, day 8, compared to any other treatment group",more
same,number of iNOS-producing Inf-MACs in tumors,"[3]; IR+RA, tumors in CCR2 KO hosts vs WT mice",significantly lower
same,CD11b+iNOS+ cells in tumors,"[3]; RA alone, 4 days after start of treatment",1.8%
same,Inf-MAC induction by IR plus RA,[3]; Rag1−/− hosts given IFN-γ−/− T cells compared to WT T cells,significantly abrogated
same,"Ki67+ proliferation in DLN, CD8+ and CD4+",[3]; [8],increased
same,"percentage of naïve T cells (CD62L+CD44−) in DLN, CD8+ and CD4+",[3]; [8],decreased
same,PD-L1 expression on DCs in non-irradiated tumors,[4]; 3 days post IR+RA treatment,Increased
same,PD-L1 expression on tumor cells in non-irradiated tumors,[4]; 3 days post IR+RA treatment,Increased
same,CD11c+iNOS+ cells in non-irradiated tumor,[4]; [9],increased
same,proportion of CD11b+ cells in non-irradiated tumors,[4]; [9],significantly increased proportion
same,proportion of CD11b+CD11c+Ly6C+ cells in non-irradiated tumors,[4]; [9],significantly increased proportion
same,CD4+ T cells in non-irradiated tumors,[4]; primary tumors received IR+RA,More
same,CD8+ T cells in non-irradiated tumors,[4]; primary tumors received IR+RA,More
same,Foxp3+CD4+ T cells in non-irradiated tumors,[4]; primary tumors received IR+RA,marked decrease
same,proportion of CD4+ IFN-γ+ cells in non-irradiated tumors,[4]; primary tumors received IR+RA,increased
same,proportion of CD8+ IFN-γ+ cells in non-irradiated tumors,[4]; primary tumors received IR+RA,increased
same,proportion of CD8+GzmB+ cells in non-irradiated tumors,[4]; primary tumors received IR+RA,increased
